Values joined by “and” are separate entries in the source; they are usually repeats but may differ in a detail not shown here. Equal entries are not always repeated.
System: Long Evans rats
Test: Behavioral satiety sequence (BSS)
Type: in vivo, Long Evans rat
Source text: The Behavioural Satiety Sequence (BSS) is a technique used to evaluate physiological satiety. It is based on the expression of a sequence of behaviors including eating, grooming, locomotor activity, followed by resting, which are typically observed in rodents post-ingestion (Halford et al, 1998, Pharmacology Biochemistry and Behaviour. 61(2): 159-168). The BSS is a widely used model for determining the effects of novel pharmaceuticals on food intake and measures of satiety in rodents (Oliveira et al, 2011, Revista de Nutrição. 24(4) 619-628), and to discriminate the cause of reduced food intake following pharmacological manipulation. For example, treatments that may reduce food intake by non-specific mechanisms, such as immobility, malaise, and taste adulteration, will disrupt this sequence (Halford et al, 1998, Pharmacology Biochemistry and Behaviour. 61(2): 159-168).
Specifically, 12 male Long-Evans rats were food-deprived for 22 h with a 2 h feeding period each day. Rats were trained to consume daily food during the 2 h period over 25 days. The testing phase was initiated once the rats consistently consumed 16-18 g of food per day with ≤10% variance in amount of feed consumed. Feeding took place in designated individual boxes in a quiet room separate from the housing room. Continuous remote monitoring via video camera during feeding was used to assess the BSS. Food consumption was measured by weighing the total available food before and after the 2 h feeding window, correcting for spillage. Lorcaserin (1 mg/kg) was included as a reference control (Higgins et al, 2011, Neuropsychopharmacology. 37(5): 1177-1191). Subjects were tested using a repeated-measures, Latin square design with 2-3 days wash-out between treatment cycles.
On scheduled test days, animals were monitored remotely via video camera during the feeding access period. The occurrence of four mutually exclusive behaviors (eating/drinking, grooming, active, rest) were individually scored. Over the 2 h feeding period, behaviors were assessed every 30 seconds. Scores were compiled into 23 5 min timebins (timebin 24 was removed due to early removal of animals) and the frequency of each behavior within each timebin was calculated to determine a temporal frequency of each measure (Rodgers et al, 2010, Pharmacology Biochemistry and Behaviour. 97: 3-14). Percentage time was plotted for each behavioral sequence in each timebin to compare between treatment groups (Higgins et al, 2011, Neuropsychopharmacology. 37(5): 1177-1191).

[1] = Compound I-19 0.3 mg/kg, raw score per animal (LT-1 to LT-12)
[2] = Compound I-19 1 mg/kg i.p., AVG of the group
[3] = Compound I-19 1 mg/kg i.p., raw score per animal
[4] = Compound I-19 1 mg/kg, AVG of 12 animals

SMILES: Clc1ccc(C2(OCC3OCCO3)c3ccccc3C3=NCCN32)cc1 (stereo not drawn) [Compound I-19]
- BSS scoring G (grooming), Time Bin 22 (105-110 TOTAL) [1]: 0 (11×) and 1
- BSS scoring G (grooming), Time Bin 23 (110-115 TOTAL) [1]: 1 (4×) and 0 (7×) and 2
- BSS scoring G (grooming), Time Bin 24 (115-120 TOTAL) [1]: 0 (7×) and 1 (5×)
- BSS scoring R (resting), Time Bin 19 (90-95 TOTAL) [1]: 1 (5×) and 0 (5×) and 2 and 6
- BSS scoring R (resting), Time Bin 20 (95-100 TOTAL) [1]: 0 (6×) and 1 (3×) and 4 and 2 (2×)
- BSS scoring R (resting), Time Bin 21 (100-105 TOTAL) [1]: 0 (5×) and 1 (2×) and 3 (3×) and 2 and 10
- BSS scoring R (resting), Time Bin 22 (105-110 TOTAL) [1]: 0 (6×) and 4 and 10 and 6 and 1 and 2 (2×)
- BSS scoring R (resting), Time Bin 23 (110-115 TOTAL) [1]: 0 (7×) and 3 and 6 (2×) and 2 (2×)
- BSS scoring R (resting), Time Bin 24 (115-120 TOTAL) [1]: 0 (7×) and 10 and 6 and 7 and 1 (2×)
- BSS scoring A (active), Time Bin 1 (0-5 TOTAL), AVG [2]: 0.11
- BSS scoring A (active), Time Bin 2 (5-10 TOTAL), AVG [2]: 0.04
- BSS scoring A (active), Time Bin 3 (10-15 TOTAL), AVG [2]: 0.07
- BSS scoring A (active), Time Bin 4 (15-20 TOTAL), AVG [2]: 0.02
- BSS scoring A (active), Time Bin 5 (20-25 TOTAL), AVG [2]: 0.10
- BSS scoring A (active), Time Bin 6 (25-30 TOTAL), AVG [2]: 0.17
- BSS scoring E (eating/drinking), Time Bin 1 (0-5 TOTAL), AVG [2]: 0.88
- BSS scoring E (eating/drinking), Time Bin 2 (5-10 TOTAL), AVG [2]: 0.88
- BSS scoring E (eating/drinking), Time Bin 3 (10-15 TOTAL), AVG [2]: 0.88
- BSS scoring E (eating/drinking), Time Bin 4 (15-20 TOTAL), AVG [2]: 0.93
- BSS scoring E (eating/drinking), Time Bin 5 (20-25 TOTAL), AVG [2]: 0.83
- BSS scoring E (eating/drinking), Time Bin 6 (25-30 TOTAL), AVG [2]: 0.80
- BSS scoring G (grooming), Time Bin 1 (0-5 TOTAL), AVG [2]: 0.02
- BSS scoring G (grooming), Time Bin 2 (5-10 TOTAL), AVG [2]: 0.07
- BSS scoring G (grooming), Time Bin 3 (10-15 TOTAL), AVG [2]: 0.03
- BSS scoring G (grooming), Time Bin 4 (15-20 TOTAL), AVG [2]: 0.03
- BSS scoring G (grooming), Time Bin 5 (20-25 TOTAL), AVG [2]: 0.03
- BSS scoring G (grooming), Time Bin 6 (25-30 TOTAL), AVG [2]: 0.01
- BSS scoring R (resting), Time Bin 1 (0-5 TOTAL), AVG [2]: 0.00
- BSS scoring R (resting), Time Bin 2 (5-10 TOTAL), AVG [2]: 0.01
- BSS scoring R (resting), Time Bin 3 (10-15 TOTAL), AVG [2]: 0.02
- BSS scoring R (resting), Time Bin 4 (15-20 TOTAL), AVG [2]: 0.03
- BSS scoring R (resting), Time Bin 5 (20-25 TOTAL), AVG [2]: 0.03
- BSS scoring R (resting), Time Bin 6 (25-30 TOTAL), AVG [2]: 0.03
- BSS scoring A (active), Time Bin 1 (0-5 TOTAL) [3]: 0 (3×) and 1 (5×) and 2 (4×)
- BSS scoring A (active), Time Bin 2 (5-10 TOTAL) [3]: 0 (8×) and 2 and 1 (3×)
- BSS scoring A (active), Time Bin 3 (10-15 TOTAL) [3]: 0 (4×) and 1 (8×)
- BSS scoring A (active), Time Bin 4 (15-20 TOTAL) [3]: 0 (10×) and 1 (2×)
- BSS scoring A (active), Time Bin 5 (20-25 TOTAL) [3]: 2 (2×) and 0 (5×) and 1 (4×) and 4
- BSS scoring A (active), Time Bin 6 (25-30 TOTAL) [3]: 2 (3×) and 0 (5×) and 7 and 3 (2×) and 1
- BSS scoring E (eating/drinking), Time Bin 1 (0-5 TOTAL) [3]: 10 (3×) and 9 (4×) and 7 and 8 (4×)
- BSS scoring E (eating/drinking), Time Bin 2 (5-10 TOTAL) [3]: 10 (4×) and 8 (4×) and 9 (3×) and 7
- BSS scoring E (eating/drinking), Time Bin 3 (10-15 TOTAL) [3]: 10 (3×) and 9 (5×) and 8 (3×) and 7
- BSS scoring E (eating/drinking), Time Bin 4 (15-20 TOTAL) [3]: 10 (5×) and 9 (6×) and 8
- BSS scoring E (eating/drinking), Time Bin 5 (20-25 TOTAL) [3]: 7 (2×) and 10 (3×) and 9 (4×) and 8 (2×) and 4
- BSS scoring E (eating/drinking), Time Bin 6 (25-30 TOTAL) [3]: 6 and 10 (5×) and 1 and 7 (2×) and 9 and 8 (2×)
- BSS scoring G (grooming), Time Bin 1 (0-5 TOTAL) [3]: 0 (10×) and 1 (2×)
- BSS scoring G (grooming), Time Bin 2 (5-10 TOTAL) [3]: 0 (6×) and 2 (2×) and 1 (4×)
- BSS scoring G (grooming), Time Bin 3 (10-15 TOTAL) [3]: 0 (9×) and 1 (2×) and 2
- BSS scoring G (grooming), Time Bin 4 (15-20 TOTAL) [3]: 0 (9×) and 1 (3×)
- BSS scoring G (grooming), Time Bin 5 (20-25 TOTAL) [3]: 1 (4×) and 0 (8×)
- BSS scoring G (grooming), Time Bin 6 (25-30 TOTAL) [3]: 0 (11×) and 1
- BSS scoring R (resting), Time Bin 1 (0-5 TOTAL) [3]: 0
- BSS scoring R (resting), Time Bin 2 (5-10 TOTAL) [3]: 0 (11×) and 1
- BSS scoring R (resting), Time Bin 3 (10-15 TOTAL) [3]: 0 (10×) and 1 (2×)
- BSS scoring R (resting), Time Bin 4 (15-20 TOTAL) [3]: 0 (9×) and 1 (3×)
- BSS scoring R (resting), Time Bin 5 (20-25 TOTAL) [3]: 0 (9×) and 1 (2×) and 2
- BSS scoring R (resting), Time Bin 6 (25-30 TOTAL) [3]: 2 and 0 (10×) and 1
- BSS scoring A (active), Time Bin 13 (60-65 TOTAL), AVG [4]: 0.09
- BSS scoring A (active), Time Bin 14 (65-70 TOTAL), AVG [4]: 0.13
- BSS scoring A (active), Time Bin 15 (70-75 TOTAL), AVG [4]: 0.17
- BSS scoring A (active), Time Bin 16 (75-80 TOTAL), AVG [4]: 0.16
- BSS scoring A (active), Time Bin 17 (80-85 TOTAL), AVG [4]: 0.18
- BSS scoring A (active), Time Bin 18 (85-90 TOTAL), AVG [4]: 0.12
- BSS scoring E (eating/drinking), Time Bin 13 (60-65 TOTAL), AVG [4]: 0.73
- BSS scoring E (eating/drinking), Time Bin 14 (65-70 TOTAL), AVG [4]: 0.73
- BSS scoring E (eating/drinking), Time Bin 15 (70-75 TOTAL), AVG [4]: 0.65
- BSS scoring E (eating/drinking), Time Bin 16 (75-80 TOTAL), AVG [4]: 0.64
- BSS scoring E (eating/drinking), Time Bin 17 (80-85 TOTAL), AVG [4]: 0.68
- BSS scoring E (eating/drinking), Time Bin 18 (85-90 TOTAL), AVG [4]: 0.54
- BSS scoring G (grooming), Time Bin 13 (60-65 TOTAL), AVG [4]: 0.06
- BSS scoring G (grooming), Time Bin 14 (65-70 TOTAL), AVG [4]: 0.03
- BSS scoring G (grooming), Time Bin 15 (70-75 TOTAL), AVG [4]: 0.05
- BSS scoring G (grooming), Time Bin 16 (75-80 TOTAL), AVG [4]: 0.03
- BSS scoring G (grooming), Time Bin 17 (80-85 TOTAL), AVG [4]: 0.01
- BSS scoring G (grooming), Time Bin 18 (85-90 TOTAL), AVG [4]: 0.03
